pIC50: −log10 of the molar value.
Target: Gag-Pol polyprotein (Human immunodeficiency virus type 1 group M subtype B (isolateBRU/LAI) (HIV-1), UniProt P03367)
Test: Inhibition Assay: Inhibition of HIV integrase.

Row | SMILES | pIC50
1 | COC(=O)c1nc(Br)c2cccnc2c1OS(=O)(=O)c1ccc(C)cc1 | 6.70
2 | CCOC(=O)c1cc(F)ccc1C#N | 4.17
3 | CNS(=O)(=O)CCCCN=[N+]=[N-] | 6.60
4 | COC(=O)c1nc(Br)c2cccnc2c1OCc1ccccc1 | 6.02

Second part, the compound after the results:

Row | pIC50 | SMILES
5 | 6.00 | CNS(=O)(=O)CCCCCl
6 | 5.92 | CNS(=O)(=O)CCCCNC(=O)OC(C)(C)C
7 | 5.80 | CNS(=O)(=O)CCCCC#N
8 | 6.44 | CNS(=O)(=O)CCCCN

Source: ChEMBL document CHEMBL3639109, “Macrocyclic integrase inhibitors” (2013)
